{
  "source": "patent US20120016014A1",
  "about": "“BENZOTHIOPHENE CARBOXAMIDE COMPOUNDS, COMPOSITION AND APPLICATIONS THEREOF” (INDIAN INSTITUTE OF SCIENCE, priority 2010, published 2012)",
  "key": {"purified PfENR [1]": {"molecular_target": "T1, purified PfENR (Plasmodium falciparum, UniProt Q9BH77)", "T1 sequence (Q9BH77 22-432)": "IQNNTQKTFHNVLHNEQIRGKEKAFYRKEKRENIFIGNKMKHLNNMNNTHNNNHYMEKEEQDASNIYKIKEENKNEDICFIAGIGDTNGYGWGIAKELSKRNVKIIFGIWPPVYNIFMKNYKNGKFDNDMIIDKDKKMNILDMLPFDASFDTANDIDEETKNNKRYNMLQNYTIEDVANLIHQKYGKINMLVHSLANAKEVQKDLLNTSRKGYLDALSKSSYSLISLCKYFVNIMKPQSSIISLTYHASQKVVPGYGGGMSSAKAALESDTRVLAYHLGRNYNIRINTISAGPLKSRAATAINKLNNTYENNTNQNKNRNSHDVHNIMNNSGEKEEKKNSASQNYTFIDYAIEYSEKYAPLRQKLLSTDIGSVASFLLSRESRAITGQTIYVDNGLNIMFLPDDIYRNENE", "assay": "PfENR inhibition, standard enzyme assay", "type": "biochemical", "conditions": "read-out: Inhibition of PfENR (IC50 μM)", "protocol": "(§1) PfENR activity was determined using standard assay described earlier."}, "[2]": {"tested_on": "Plasmodium falciparum 3D7", "assay": "In vitro inhibition of P. falciparum 3D7 blood-stage parasites", "type": "cell-based", "protocol": "Benzothiophene carboxamide derivatives of the present invention were checked for their anti-parasitic activity against 3D7 (chloroquine sensitive strain) in an in vitro culture. […] To find out parasite stage where these compounds act, synchronised ring stage culture of P. falciparum was treated with 2.5 μM concentration of compounds 6 and 7. […] When compounds 6 and 7 were added at the trophozoite stage the cells could not proceed to the schizont stage indicating the growth inhibition occurs at trophozoite stage.\nSynchronised culture of P. falciparum 3D7 was treated with 2.5 μM compound 10 and 11 at the ring stage."}, "purified PfENR [3]": {"molecular_target": "T1, purified PfENR", "assay": "PfENR inhibition kinetics, cofactor potency and progress curve analysis", "type": "biochemical", "protocol": "as §1\nThe accumulation of product further decreased when compound 6 was preincubated with the enzyme (curve c). On addition of NAD+ to this reaction the rate of product accumulation further decreased (curve d).\nProgress curves for inhibition by varying concentrations of compounds 6 and 7 were examined in detail (FIGS. 16a and 16b). From the progress curve analyses, it was inferred that for each concentration of the inhibitors the initial and the steady state velocity decreased exponentially with time. At higher inhibitor concentration, steady state is reached rapidly with a decrease in steady state velocity (vs). […] Progress curves were analysed using equation 3a from which a series of Kobs values were obtained for each concentration of inhibitor."}, "[4]": {"tested_on": "hepatic cell stages of P. berghei", "assay": "Inhibition of hepatic cell stages (EEFs) of P. berghei", "type": "cell-based"}, "HepG2 cells": {"tested_on": "HepG2 cells", "assay": "Toxicity to HepG2 cells", "type": "cell-based", "conditions": "one day treatment"}, "[5]": {"tested_on": "blood-stage P. berghei ANKA", "assay": "Experimental cerebral malaria in C57BL/6 mice", "type": "in vivo", "conditions": "for Mean Survival Days (Observed for 25 days): 5 mg/kg body weight daily for six days", "protocol": "C57BL/6 mice were infected with blood-stage P. berghei ANKA as discussed in the experimental section. After 24 hours of infection mice were treated intravenously with various doses of inhibitors. It was observed that all control mice developed hypothermia by day 2, ataxia and convulsions by day 3 and died by day 6, whereas inhibitor treated groups had considerably higher longevity (11-24 days). Though each group of mice developed hypothermia by day 4, convulsions and ataxia development were delayed in case of treated mice. […] The mice treated with 2.5 mg/kg body weight survived for 18 days. Even at or below 1 mg/kg body weight of inhibitor dose, the mice survived for 11 days, but paralysis and ataxia development occurred on Day 7.\n[…]. The mice were treated for 6 days. […]. Chloroquine was used as the control drug. […].\nTherefore, compounds 10 and 11 were also administered at 5 mg/Kg body weight. The compounds were administered through intraperitoneal, peroral, subcutaneous and intravenous routes. Compound 10 and 11 were administered once daily for 6 days. […]. The mean survival days for this treatment group was 16 (FIG. 12c and Table III). […]. Chloroquine was used as the control drug."}, "[6]": {"assay": "Hot plate latency test (thermal hyperalgesia)", "type": "in vivo, rats", "protocol": "The animals were housed in an animal house facility of National Institute of Immunology, India, with controlled temperature (22±2° C.) under a 12/12 h light/dark cycle. They had free access to food and water ad libitum. All experiments were conducted according to the guidelines of the international association for the study of pain and approved by the institutional ethical committee for animal research. All in vivo experiments were carried out on inbred male […] rats ( 200-320 g body weight). Same age and equal body weight of animals were used according to experiments. No animals were used for more than one experiment. Most popular non-steroidal anti-inflammatory drugs which are widely use for treatment of chronic and inflammatory pain, such as Ibuprofen, Naproxen, Ketoprofen, Aspirin, Nimesulide, Indomethacine were purchased from Cayman Chemicals, USA and used to evaluate the efficacy of drugs in animal model. These drugs and different derivatives of Benzothiophene were dissolved in minimum volume of Dimethyl sulfoxide (DMSO) and further diluted in Phosphate buffer saline prior to use. […] Withdrawal latency for tail flicking was measured. […] NSAIDs is commonly evaluated by hot plate latency assay whereby animals are exposed to thermal stimulus (54 degree […] time for hind paw licking is measured as behavioural response for pain."}, "[7]": {"assay": "Mechanical hyperalgesia, Randall-Selitto, carrageenan induced", "type": "in vivo, rats", "conditions": "15 mg/kg b wt., after 1 hrs, basal level in 5 hrs", "protocol": "Mechanical hyperalgesia was measured as hind limb withdrawal threshold in response to a mechanical stimulus applied to hind paws of rat using Randall-selitto meter, Randall and Selitto, 1957. To determine the mechanical hyperalgesia, the force was applied with increased pressure at a constant rate until the animal withdrew its limb. The base line nociceptive threshold was measured before induction of hyperalgesia. Moreover, hyperalgesia was induced by carrageenan and then groups of animal were treated with compound 4, compound 6 and compound 8 (15 mg/kg body weight) and Ibuprofen (50 mg/kg body weight). Control group was treated with physiological saline. […] The anti-nociceptive efficacy of the compounds has been evaluated the efficacy with paw withdrawal threshold latency of animals."}, "Tail flick latency test": {"assay": "Tail flick latency test", "conditions": "15 mg/kg b. wt. vs Ibuprofen 50 mg/kg b. wt., 30 min and 60 min post injection", "experimental": "Hot plate latency test was performed under red light on the metal surface of hot plate analgesia meter (IITC, Life science, CA). Animals were placed individually on the surface of hot plate maintained at a constant temperature 54±1° C. The anti-nociceptive response was latency recorded from the time when animal was placed on the heated surface until the behavior response show licking of hind paw to avoid thermal nociception. A maximum hot plate latency of 30 sec was used for each animal to prevent paw tissue damage. Base line nociceptive latency was obtained for each animal prior to any drug administration. Thereafter, groups of animals were treated with different concentration of different derivatives of benzothiophene and well known NSAIDs. […] Subsequent nociceptive response latency for each animal was determined at 30 and 60 min after drug administration. […] In continuation of tail flick latency assay, the anti-nociceptive effect of the compounds was monitored. Rats treated as described above were subjected to determination of thermal nociceptive pain. Rats were confined in restrainer and allowed to accommodate. The tail withdrawal test consisted of immersing the posterior 8-10 cm of the tail in hot water bath maintained at 54±1° C. Withdrawal latency for tail flicking was measured. A maximum tail flick latency of 20 sec was permitted to minimize tissue damage."}},
  "data": [
    {"molecule": "O=C(NCc1ccc(F)cc1)c1sc2ccccc2c1Br", "note": "[Compound 6, N-(4-fluorobenzyl)-3-bromobenzo[b]thiophene-2-carboxamide]", "values": [
      {"measurement": "IC50", "setting": "purified PfENR [1]", "value": "0.115 ± 0.12", "unit": "µM"},
      {"measurement": "Stage of parasite growth arrest", "setting": "[2]; 2.5 μM, added at ring stage, P. falciparum 3D7", "value": "arrested at the trophozoite stage"},
      {"measurement": "Parasites observed to be dead", "setting": "[2]; 2.5 μM, synchronised ring stage culture of P. falciparum 3D7", "value": "~90", "unit": "%"},
      {"measurement": "IC50", "setting": "[2]; Erythrocyte, growth inhibition, red blood cell stages of Plasmodium falciparum 3D7 (chloroquine sensitive), read-out: P. falciparum (IC50 μM)", "value": "1 ± 0.3", "unit": "µM"},
      {"measurement": "Effect of NAD+ on binding to PfENR (cofactor potency assay)", "setting": "purified PfENR [3]; 10 μM NAD+ added to preincubated mixture", "value": "potentiate the binding"},
      {"measurement": "Inhibition kinetics with respect to NADH", "setting": "purified PfENR [3]; Dixon plot, cofactor NADH", "value": "competitive kinetics with NADH"},
      {"measurement": "Inhibition kinetics with respect to crotonoyl CoA", "setting": "purified PfENR [3]; Dixon plot, substrate crotonoyl CoA", "value": "uncompetitive against crotonoyl CoA"},
      {"measurement": "Binding behaviour from progress curves", "setting": "purified PfENR [3]; inhibitor 0-750 nM", "value": "slow tight binding behaviour"},
      {"measurement": "Isomerization rate constant (k5 * 10^−2) (s^−1)", "setting": "purified PfENR [3]; purified PfENR, progress curves", "value": "1.19 ± .045 10^−2 s^−1"},
      {"measurement": "koff", "setting": "purified PfENR [3]; purified PfENR, progress curves, read-out: Dissociation rate constant (k6* 10^−3)", "value": 0.001, "unit": "s⁻¹"},
      {"measurement": "Ki", "setting": "purified PfENR [3]; purified PfENR, read-out: Dissociation constant (Ki)", "value": 0.0489, "unit": "µM"},
      {"measurement": "IC50", "setting": "[4]; Plasmodium berghei, 48 h, hepatic cell stages of P. berghei, two days treatment", "value": 51, "unit": "µM"},
      {"measurement": "Therapeutic Index (TI) [=TC50/IC50]", "setting": "[4]; TC50 HepG2 / IC50 EEFs", "value": "39.0 ± 4"},
      {"measurement": "TC50 for HepG2 cells", "setting": "HepG2 cells", "value": "2000 ± 200", "unit": "µM"},
      {"measurement": "Survival, dose determination", "setting": "[5]; 2.5 mg/kg body weight intravenously, C57BL/6 mice", "value": 18, "unit": "days"},
      {"measurement": "Kidney and liver functions (urea, creatinine and glucose levels)", "setting": "[5]; 5 mg/kg body weight", "value": "normal kidney and liver functions"},
      {"measurement": "Survival, dose determination", "setting": "[5]; 5 mg/kg body weight intravenously, C57BL/6 mice", "value": 24, "unit": "days"},
      {"measurement": "Survival, dose determination", "setting": "[5]; 10 mg/kg body weight intravenously, C57BL/6 mice", "value": 20, "unit": "days"},
      {"measurement": "Mean Survival Days (Observed for 25 days)", "setting": "[5]; Intraperitoneal, C57BL/6 mice, 5 mg/kg", "value": "20 ± 0.9", "unit": "days"},
      {"measurement": "Mean Survival Days (Observed for 25 days)", "setting": "[5]; Intraperitoneal, C57BL/6 mice, listed as compound 6, 5 mg/kg", "value": 21, "unit": "days"},
      {"measurement": "Mean Survival Days (Observed for 25 days)", "setting": "[5]; Intravenous, C57BL/6 mice, 5 mg/kg", "value": "24 ± 2.0", "unit": "days"},
      {"measurement": "Mean Survival Days (Observed for 25 days)", "setting": "[5]; Intravenous, C57BL/6 mice, listed as compound 6, 5 mg/kg", "value": 24, "unit": "days"},
      {"measurement": "Mean Survival Days (Observed for 25 days)", "setting": "[5]; Per oral, C57BL/6 mice", "value": "12 ± 1.2", "unit": "days"},
      {"measurement": "Mean Survival Days (Observed for 25 days)", "setting": "[5]; Subcutaneous, C57BL/6 mice, 5 mg/kg", "value": "18 ± 1.3", "unit": "days"},
      {"measurement": "Mean Survival Days (Observed for 25 days)", "setting": "[5]; Subcutaneous, C57BL/6 mice, listed as compound 6, 5 mg/kg", "value": 21, "unit": "days"},
      {"measurement": "Survival, dose determination", "setting": "[5]; at or below 1 mg/kg body weight intravenously, C57BL/6 mice", "value": 11, "unit": "days"},
      {"measurement": "Parasitemia levels (Peter's test)", "setting": "[5]; intravenous treatment, C57BL/6 mice", "value": "undetectable level by Day 18"},
      {"measurement": "Increase of longevity", "setting": "[5]; oral route, 5 mg/kg body weight, 6 days treatment", "value": 5, "unit": "days"},
      {"measurement": "MPE index, hot plate latency assay", "setting": "[6]; 15 mg/kg b. wt. i.p., 30 and 60 min", "value": "preeminent analgesic activity compared to other compounds"},
      {"measurement": "Analgesic activity compared with Ibuprofen, hot plate", "setting": "[6]; compounds 15 mg/kg b. wt. vs Ibuprofen 50 mg/kg b. wt.", "value": "potent analgesic activity at much lower concentration than Ibuprofen"},
      {"measurement": "Mechanical hyperalgesia, paw withdrawal threshold", "setting": "[7]", "value": "significantly reversed the mechanical hyperalgesia"},
      {"measurement": "Anti-nociceptive response, tail flick latency assay", "setting": "Tail flick latency test", "value": "better anti-nociceptive response than the Ibuprofen"}
    ]}
  ]
}
